In publication PMC4224687 (Journal of Controlled Release, 2014):

Format: in vivo, male Sprague-Dawley rats
Settings: rats, saline solution, 50 mg/kg

oral absorption: not absorbed
Structure (SMILES): CO[C@H]1O[C@H](COS(=O)(=O)O)[C@@H](O[C@@H]2O[C@@H](C(=O)O)[C@@H](O[C@H]3O[C@H](COS(=O)(=O)O)[C@@H](O[C@@H]4O[C@H](C(=O)O)[C@@H](O[C@H]5O[C@H](COS(=O)(=O)O)[C@@H](O)[C@H](O)[C@H]5NS(=O)(=O)O)[C@H](O)[C@H]4O)[C@H](OS(=O)(=O)O)[C@H]3NS(=O)(=O)O)[C@H](O)[C@H]2OS(=O)(=O)O)[C@H](O)[C@H]1NS(=O)(=O)O [Fpx, Fondaparinux]
